# Source: patent publication US20120046314A1, “[…] USE IN TREATING OR […]” (MITOS, INC., priority 2005, published 2012)
# Tests used:
# Cathepsin B = experiment: Gene expression in cardiac tissue of Tempol-fed mice (chip-based microarray); format: in vivo
# Description: (§1) To assess the effects of Tempol on gene expression, Tempol was administered to experimental mice at a dose of 5 mg/g of food from 14 months to 31 months after birth. Mice receiving the same food without the addition of Tempol were used as a negative control. At the age of 31 months, the experimental animals were sacrificed and the hearts were surgically removed. The expression of a broad spectrum of genes in the cardiac tissue was assessed using chip-based microarray technology. Such chips are well known in the art and are widely used to assess gene expression.
# Elongation factor-1-δ = experiment: as above; format: in vivo
# Description: as §1
# Meltrin-alpha (ADAM12) = experiment: as above; format: in vivo
# Description: as §1
# [1] = system: Mitogen activated protein kinase kinase 5; experiment: as above; format: in vivo
# Description: as §1
# [2] = system: Peroxisome Proliferator-Activated Receptor-δ; experiment: as above; format: in vivo
# Description: as §1
# Brain protein I3 (BRI3) = experiment: Gene expression in adipose tissue of Tempol-fed mice (Affymetrix MOE430A 2.0 array); format: in vivo
# Description: (§2) In a further gene expression study, Tempol was administered to experimental mice at a dose of 5 g/kg of diet from 12 months through 15 months. Mice receiving the same diet without the addition of Tempol were used as a negative control. At the age of 15 months, the adipose tissue of the experimental animals was obtained. The expression of a broad spectrum of genes in the adipose tissue was assessed using chip-based microarray technology. Specifically, in this case an Affymetrix MOE430A 2.0 array, containing 12,960 genes, was employed. Such chips are well known in the art and are widely used to assess gene expression.
# Cyclooxygenase 1 (COX-1) = experiment: as above; format: in vivo
# Description: as §2
# [3] = system: Glutathione S-transferase M3 (GSTM3); experiment: as above; format: in vivo
# Description: as §2
# [4] = system: Hypoxia-inducible factor, alpha subunit (HIF1A); experiment: as above; format: in vivo
# Description: as §2
# Sirtuin 2 (SIRT2) = experiment: as above; format: in vivo
# Description: as §2
# [5] = system: Superoxide dismutase 2 (SOD2); experiment: as above; format: in vivo
# Description: as §2
# [6] = system: Uncoupling protein 2 (UCP2); experiment: as above; format: in vivo
# Description: as §2
# [7] = system: p53-related apoptosis effector related to PMP-22 (PERP); experiment: as above; format: in vivo
# Description: as §2
# [8] = system: cancer-related proteins in the cancerous tissue; experiment: Example 1: protein levels in cancerous tissue of patient diagnosed with cancer after Tempol; format: in vivo, human; settings: 70-kilogram patient diagnosed with cancer; 1500 mg per day for 180 days
# Description: (§3) A 70-kilogram patient diagnosed with cancer is administered a dose of 1500 mg of Tempol per day for 180 days. This may be administered in a single dose, or may be administered as a number of smaller doses over a 24-hour period: for example, three 500-mg doses at eight-hour intervals. Following treatment, the protein levels of elongation factor-1 delta, ADAM12, cathepsin B, peroxisome proliferator-activated receptor-δ, hypoxia-inducible factor alpha subunit, superoxide dismutase 2, uncoupling protein 2, and cyclooxygenase 1 in the cancerous tissue are reduced, and the levels of mitogen-activated protein kinase kinase 5, glutathione S-transferase M3, PERP, sirtuin 2, and brain protein I3 are increased.
# [9] = system: cancer-related proteins in the cancerous tissue; experiment: Example 2: protein levels in patient with familial risk factors for cancer after Tempol; format: in vivo, human; settings: 70-kilogram patient with familial risk factors, no symptoms; 1500 mg per day for 180 days
# Excerpt: as §3, with “This” for “A 70-kilogram patient diagnosed with cancer is administered a dose of 1500 mg of Tempol per day for 180 days. This”
# [10] = 5 mg/g of food from 14 to 31 months, mouse tp51
# [11] = 5 mg/g of food from 14 to 31 months, mouse tp52
# [12] = 5 mg/g of food from 14 to 31 months, mouse tp53
# [13] = Tempol-treated vs control mice, negative = downregulated
# [14] = reduction in Tempol-treated animals
# [15] = 5 g/kg of diet from 12 through 15 months
# [16] = Tempol-treated vs control mice, negative = downregulated, P Value 0.004
compound,measurement,setting,value
"CC1(C)CC(O)CC(C)(C)N1[O] [Tempol, 4-hydroxy-2,2,6,6-tetramethylpiperidine-1-oxyl]","Cathepsin B expression, TEMPOL-treated mice tp51",Cathepsin B; [10],−12
same,"Cathepsin B expression, TEMPOL-treated mice tp52",Cathepsin B; [11],6
same,"Cathepsin B expression, TEMPOL-treated mice tp53",Cathepsin B; [12],13
same,Cathepsin B expression Fold change,Cathepsin B; [13],−2.8 fold
same,Cathepsin B expression reduced (fold),Cathepsin B; [14],2.8 fold
same,"Elongation factor-1-δ expression, TEMPOL-treated mice tp51",Elongation factor-1-δ; [10],12
same,"Elongation factor-1-δ expression, TEMPOL-treated mice tp52",Elongation factor-1-δ; [11],115
same,"Elongation factor-1-δ expression, TEMPOL-treated mice tp53",Elongation factor-1-δ; [12],185
same,Elongation factor-1-δ expression Fold change,Elongation factor-1-δ; [13],−5.9 fold
same,Elongation factor-1-δ expression reduced (fold),Elongation factor-1-δ; [14],5.9 fold
same,"ADAM12 expression, TEMPOL-treated mice tp51",Meltrin-alpha (ADAM12); [10],−16
same,"ADAM12 expression, TEMPOL-treated mice tp52",Meltrin-alpha (ADAM12); [11],−4
same,"ADAM12 expression, TEMPOL-treated mice tp53",Meltrin-alpha (ADAM12); [12],−14
same,ADAM12 expression Fold change,Meltrin-alpha (ADAM12); [13],−2.3 fold
same,ADAM12 expression reduced (fold),Meltrin-alpha (ADAM12); [14],2.3 fold
same,"MAPKK5 expression, TEMPOL-treated mice tp51",[1]; [10],41
same,"MAPKK5 expression, TEMPOL-treated mice tp52",[1]; [11],84
same,"MAPKK5 expression, TEMPOL-treated mice tp53",[1]; [12],63
same,MAPKK5 expression Fold change,"[1]; Tempol-treated vs control mice, upregulated",2.2 fold
same,"PPAR-δ expression, TEMPOL-treated mice tp51",[2]; [10],1
same,"PPAR-δ expression, TEMPOL-treated mice tp52",[2]; [11],19
same,"PPAR-δ expression, TEMPOL-treated mice tp53",[2]; [12],28
same,PPAR-δ expression Fold change,[2]; [13],−2.3 fold
same,PPAR-δ expression reduced (fold),[2]; [14],2.3 fold
same,"BRI3 expression, Mean (Tempol-treated mice)",Brain protein I3 (BRI3); [15],1835
same,BRI3 expression Fold change,"Brain protein I3 (BRI3); Tempol-treated vs control mice, upregulated, P Value 0.003",1.18 fold
same,"COX-1 expression, Mean (Tempol-treated mice)",Cyclooxygenase 1 (COX-1); [15],331
same,COX-1 expression Fold change,"Cyclooxygenase 1 (COX-1); Tempol-treated vs control mice, negative = downregulated, P Value 0.006",−1.18 fold
same,COX-1 expression reduced (fold),Cyclooxygenase 1 (COX-1); [14],1.18 fold
same,"GSTM3 expression, Mean (Tempol-treated mice)",[3]; [15],74
same,GSTM3 expression Fold change,"[3]; Tempol-treated vs control mice, upregulated, P Value 0.001",7.52 fold
same,"HIF1A expression, Mean (Tempol-treated mice)",[4]; [15],2203
same,HIF1A expression Fold change,[4]; [16],−1.23 fold
same,HIF1 alpha expression reduced (fold),[4]; [14],1.23 fold
same,"SIRT2 expression, Mean (Tempol-treated mice)",Sirtuin 2 (SIRT2); [15],686
same,SIRT2 expression Fold change,"Sirtuin 2 (SIRT2); Tempol-treated vs control mice, upregulated, P Value 0.048",1.16 fold
same,"SOD2 expression, Mean (Tempol-treated mice)",[5]; [15],4423
same,SOD2 expression Fold change,[5]; [16],−1.33 fold
same,SOD2 expression reduced (fold),[5]; [14],1.33 fold
same,"UCP2 expression, Mean (Tempol-treated mice)",[6]; [15],2140
same,UCP2 expression Fold change,"[6]; Tempol-treated vs control mice, negative = downregulated, P Value 0.012",−1.61 fold
same,UCP2 expression reduced (fold),[6]; [14],1.61 fold
same,"PERP expression, Mean (Tempol-treated mice)",[7]; [15],82
same,PERP expression Fold change,"[7]; Tempol-treated vs control mice, upregulated, P Value 0.049",1.66 fold
same,"levels of MAPKK5, GSTM3, PERP, sirtuin 2 and brain protein I3",[8],increased
same,"protein levels of elongation factor-1 delta, ADAM12, cathepsin B, PPAR-δ, HIF alpha subunit, SOD2, UCP2 and COX-1 in the cancerous tissue",[8],reduced
same,"levels of MAPKK5, GSTM3, PERP, sirtuin 2 and brain protein I3",[9],increased
same,"protein levels of elongation factor-1 delta, ADAM12, cathepsin B, PPAR-δ, HIF alpha subunit, SOD2, UCP2 and COX-1 in the cancerous tissue",[9],reduced
